{
  "source": "PubChem BioAssay (NCI)",
  "system": "MDA-MB-468 breast",
  "assay": "NCI tumour cell line growth inhibition, 48 h",
  "note": "Where “and” joins values, the source holds several entries; their conditions need not be identical. Equal entries are not always repeated.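 Grown in 96-well plates, cells were treated for 48 hours with each compound at five concentrations. Insufficient inhibition: endpoint recorded as highest concentration tested. GI50 = concentration required for 50% inhibition of growth. TGI marks complete inhibition of growth.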",
  "data": [
    {"smiles": "CCN(CC)CCNc1ccc([N+](=O)[O-])c2sc3cc(Cl)ccc3c(=O)c12", "values": [
      {"measurement": "GI50", "value": 17.3, "unit": "µM"},
      {"measurement": "TGI", "value": 61.6, "unit": "µM"}
    ]},
    {"smiles": "COc1ccc(-c2cc(-c3ccccc3)nc(NCCNc3ccnc4cc(Cl)ccc34)n2)cc1", "values": [
      {"measurement": "GI50", "value": 0.3, "unit": "µM"},
      {"measurement": "TGI", "value": 1.21, "unit": "µM"}
    ]},
    {"smiles": "N#CC(NC(=O)CCl)=C(Cl)Cl", "values": [
      {"measurement": "GI50", "value": 1.33, "unit": "µM"},
      {"measurement": "TGI", "value": 3.48, "unit": "µM"}
    ]},
    {"smiles": "CC1(C)CC[C@]2(C(=O)O)CC[C@]3(C)C(=CC[C@@H]4[C@@]5(C)C/C(=C/c6ccco6)C(=O)C(C)(C)[C@@H]5CC[C@]43C)[C@@H]2C1", "values": [
      {"measurement": "GI50", "value": 3.29, "unit": "µM"},
      {"measurement": "TGI", "value": 30.9, "unit": "µM"}
    ]},
    {"smiles": "COc1cccc(C2C(C#N)=C(N)Oc3cc4c(cc32)OCO4)c1", "note": "(centres undefined)", "values": [
      {"measurement": "GI50", "value": 0.0244, "unit": "µM"},
      {"measurement": "TGI", "value": 0.665, "unit": "µM"}
    ]},
    {"smiles": "CCSc1ncc(Br)c(Sc2nc(N)nc3nc[nH]c23)n1", "values": [
      {"measurement": "GI50", "value": 1.72, "unit": "µM"},
      {"measurement": "TGI", "value": 7.81, "unit": "µM"}
    ]},
    {"smiles": "NC(=O)c1ncn(C2OC(CO)C(O)C2O)c1N", "note": "(centres undefined)", "values": [
      {"measurement": "GI50", "value": 75.6, "unit": "µM"},
      {"measurement": "TGI", "value": "> 100", "unit": "µM"}
    ]},
    {"smiles": "Nc1nc(=S)c2[nH]cnc2[nH]1", "values": [
      {"measurement": "GI50", "value": "0.15 µM and 1.04 µM"},
      {"measurement": "TGI", "value": "1.23 µM and 8.93 µM"}
    ]},
    {"smiles": "N/C(=N\\C(N)=N\\c1nc2ccccc2s1)c1cnccn1", "values": [
      {"measurement": "GI50", "value": 2.47, "unit": "µM"},
      {"measurement": "TGI", "value": 6.07, "unit": "µM"}
    ]},
    {"smiles": "COc1ccc(Cc2nc3cc(OC)c(OC)cc3c(=O)[nH]2)cc1", "values": [
      {"measurement": "GI50", "value": 3.32, "unit": "µM"},
      {"measurement": "TGI", "value": 17.1, "unit": "µM"}
    ]},
    {"smiles": "Cc1cc(Nc2ccc(Cl)cc2)nc(NCCCNc2ccnc3cc(Cl)ccc23)n1", "values": [
      {"measurement": "GI50", "value": 1.61, "unit": "µM"},
      {"measurement": "TGI", "value": 3.18, "unit": "µM"}
    ]},
    {"smiles": "Cn1ccnc1C(=O)/C=C/c1ccc(C(=O)Nc2c(F)c(F)c(F)c(F)c2F)cc1", "values": [
      {"measurement": "GI50", "value": 1.72, "unit": "µM"},
      {"measurement": "TGI", "value": 4.33, "unit": "µM"}
    ]},
    {"smiles": "CNCc1cccc2c1OCCOCCOCCC(C)S(=O)(=O)c1ccc(cc1)-c1cnc(N)c(n1)C(=O)N2", "note": "(centres undefined)", "values": [
      {"measurement": "GI50", "value": 1.29, "unit": "µM"},
      {"measurement": "TGI", "value": 3.71, "unit": "µM"}
    ]},
    {"smiles": "CNCc1ccc(-c2[nH]c3cc(F)cc4c3c2CCNC4=O)cc1", "values": [
      {"measurement": "GI50", "value": 10.8, "unit": "µM"},
      {"measurement": "TGI", "value": 25.2, "unit": "µM"}
    ]},
    {"smiles": "C#Cc1cccc(NC(=O)C2CCCN(C(=O)CCl)C2)c1", "note": "(centres undefined)", "values": [
      {"measurement": "GI50", "value": "> 82.5", "unit": "µM"},
      {"measurement": "TGI", "value": "> 82.5", "unit": "µM"}
    ]},
    {"smiles": "C#CC#CC#CC#CC#CC#CC#CC#CC[C@@H]1OC[C@@H](COC(=O)O[C@@H](C(=O)O[C@H]2C[C@@]3(O)[C@@H](OC(=O)c4ccccc4)[C@@H]4[C@]5(OC(C)=O)CO[C@@H]5C[C@H](O)[C@@]4(C)C(=O)[C@H](OC(C)=O)C(=C2C)C3(C)C)[C@@H](NC(=O)c2ccccc2)c2ccccc2)O1", "values": [
      {"measurement": "GI50", "value": 0.108, "unit": "µM"},
      {"measurement": "TGI", "value": 0.56, "unit": "µM"}
    ]},
    {"smiles": "COc1cc(/C=C\\c2cc(OC)c(OC)c(OC)c2)cc(NS(=O)(=O)c2ccc(Cl)cc2)c1OC", "values": [
      {"measurement": "GI50", "value": 0.271, "unit": "µM"},
      {"measurement": "TGI", "value": 19.4, "unit": "µM"}
    ]},
    {"smiles": "CN(C)c1ccc(N=C2C=CC(=C(C#N)C#N)c3ccccc32)cc1", "values": [
      {"measurement": "GI50", "value": 0.393, "unit": "µM"},
      {"measurement": "TGI", "value": 2.35, "unit": "µM"}
    ]},
    {"smiles": "O=C(OC[C@@H]1CO1)c1cccc2c(=O)c3ccccc3[nH]c12", "values": [
      {"measurement": "GI50", "value": 0.883, "unit": "µM"},
      {"measurement": "TGI", "value": 2.79, "unit": "µM"}
    ]},
    {"smiles": "COc1ccc(/C=C/C(C)=N/OCC(=O)Nc2ccc(Cl)cc2)cc1", "values": [
      {"measurement": "GI50", "value": 2.52, "unit": "µM"},
      {"measurement": "TGI", "value": 8.34, "unit": "µM"}
    ]},
    {"smiles": "CCOc1ccc(Nc2nc(-c3c(C)nc4ncccn34)cs2)cc1", "values": [
      {"measurement": "GI50", "value": 0.303, "unit": "µM"},
      {"measurement": "TGI", "value": 15, "unit": "µM"}
    ]},
    {"smiles": "COc1ccc(/C=C\\c2cc(OC)c(OC)c(OC)c2)c(NS(=O)(=O)c2ccc(C(C)(C)C)cc2)c1O", "values": [
      {"measurement": "GI50", "value": 0.304, "unit": "µM"},
      {"measurement": "TGI", "value": 22.7, "unit": "µM"}
    ]},
    {"smiles": "O=C(c1ccccc1)C(Br)C(Br)c1ccccc1", "note": "(centres undefined)", "values": [
      {"measurement": "GI50", "value": 2.07, "unit": "µM"},
      {"measurement": "TGI", "value": 4.65, "unit": "µM"}
    ]},
    {"smiles": "COC(=O)c1ccc2[nH]c(O)c(C(=Nc3ccc(N(C)C(=O)CN4CCN(C)CC4)cc3)c3ccccc3)c2c1", "values": [
      {"measurement": "GI50", "value": 1.28, "unit": "µM"},
      {"measurement": "TGI", "value": 2.99, "unit": "µM"}
    ]},
    {"smiles": "CC1=C(CNO)C2=C(C)C3(CC3)[C@@](C)(O)C(=O)C2=C1", "values": [
      {"measurement": "GI50", "value": 0.319, "unit": "µM"},
      {"measurement": "TGI", "value": 0.92, "unit": "µM"}
    ]},
    {"smiles": "NC(N)=N/N=C(/c1ccccc1)c1ccccc1F", "values": [
      {"measurement": "TGI", "value": 4.94, "unit": "µM"}
    ]},
    {"smiles": "Cc1ccnc(Nc2ccc([N+](=O)[O-])c(NCCN3CCOCC3)n2)c1", "values": [
      {"measurement": "GI50", "value": "0.0185 µM and 0.0273 µM"}
    ]},
    {"smiles": "CC1=C2[C@@H](CC1)[C@]1(C)O[C@@](C3CC3)(C[C@H]1OC(=O)CO)[C@H]2OC(=O)/C=C/c1ccccc1", "values": [
      {"measurement": "GI50", "value": 14.6, "unit": "µM"},
      {"measurement": "TGI", "value": 30.6, "unit": "µM"}
    ]},
    {"smiles": "COc1cc(OC)cc(-c2ccc(-c3ccc(C(=N)N)cn3)s2)c1", "values": [
      {"measurement": "GI50", "value": 1.72, "unit": "µM"},
      {"measurement": "TGI", "value": 3.32, "unit": "µM"}
    ]},
    {"smiles": "N#CCC1(n2cc(-c3ncnc4[nH]ccc34)cn2)CN(C2CCN(C(=O)c3ccnc(C(F)(F)F)c3F)CC2)C1", "values": [
      {"measurement": "GI50", "value": 44.2, "unit": "µM"},
      {"measurement": "TGI", "value": "> 100", "unit": "µM"}
    ]},
    {"smiles": "CCN1CCN(c2nc(NNC(=O)c3ccccc3)nc(N3CCN(C(c4ccccc4)c4ccccc4)CC3)n2)CC1", "values": [
      {"measurement": "GI50", "value": 1.94, "unit": "µM"},
      {"measurement": "TGI", "value": 4.69, "unit": "µM"}
    ]},
    {"smiles": "COc1ccc(/C(C)=C(\\c2ccc(Cl)cc2)c2ccc(OCCN3CCCCCC3)cc2)cc1F", "values": [
      {"measurement": "GI50", "value": 2.65, "unit": "µM"},
      {"measurement": "TGI", "value": 5.89, "unit": "µM"}
    ]},
    {"smiles": "COc1ccc(OCC(O)CN2CCN(c3ccc(Cl)cc3)CC2)cc1", "note": "(centres undefined)", "values": [
      {"measurement": "GI50", "value": 8.93, "unit": "µM"},
      {"measurement": "TGI", "value": "> 100", "unit": "µM"}
    ]}
  ]
}
